According to paper PMC6151740, “Pharmacokinetics, Tissue Distribution, and Elimination of Three Active Alkaloids in Rats after Oral Administration of the Effective Fraction of Alkaloids from Ramulus Mori, an Innovative Hypoglycemic Agent” (Molecules : A Journal of Synthetic Chemistry and Natural …, 2017):

Tests used:
[1] = Tissue distribution in rats after oral SZ–A; format: in vivo; settings: Sprague-Dawley, pancreas, rat, SZ–A 40 mg/kg p.o., 0.25, 0.5 and 2 h, n = 3, read-out: tissue to plasma ratio (T/P) in the pancreas
Description: Three groups of rats (three rats in each group) were administered with a single oral dose of SZ–A at 40 mg/kg. Rats each were sacrificed and various tissues, including liver, kidney, pancreas, stomach, duodenum, jejunum, ileum, cecum, colon, and the content in the gastrointestinal tract were collected at 0.25, 0.5, and 2 h time points. One additional rat was sacrificed predose to provide control tissues for analysis. After removing blood or content and weighing, each sample was individually homogenized with normal saline solution (1:3, w/v for tissue; 1:9, w/v for content) using a tissue homogenizer (Polytron PT1600E, Kinematica, Luzern, Switzerland) and stored at −20 °C until LC-MS/MS analysis.

[2] = test system: rat caecal microbiota cultures; test: In vitro incubation of SZ–A with rat caecal microbiota cultures; format: in vitro ADME; settings: 2 h
Description: (§1) Pooled rat intestinal homogenate from six males was prepared using a tissue homogenizer with ice cold normal saline solution at a proportion of 1:3 (w/v). SZ–A was incubated with rat intestinal homogenate (5 mg protein/mL) with/without a NADPH-generating system (0.011 M β-NADP, 0.1 M glucose 6-phosphate, 10 U/mL glucose-6-phosphate dehydrogenase) in a 37 °C water bath for 120 min. Meanwhile, caecal content was collected and mixed with anaerobic medium (1:30, w/v) to prepare the cultures under nitrogen atmosphere at 37 °C for 120 min. SZ–A and rat caecal microbiota cultures were incubated at a total volume of 200 μL with the boiled samples as the negative control, concomitantly. The incubation was stopped at 2 h by adding two volumes of methanol–acetonitrile (1:3, v/v). Triplicate supernatants were taken by centrifugation at 18,880× g for 5 min and stored at −20 °C until LC-MS/MS analysis. The results were expressed as the percentage of the concentration at 0 min.

[3] = In vitro incubation of SZ–A with rat intestinal homogenate; format: in vitro ADME; settings: SZ–A 10.87 μg/mL, with/without NADPH generation, 37 °C, 120 min
Description: as §1

[4] = In situ single-pass intestinal perfusion (rat jejunum, mesenteric vein blood); format: in vivo; settings: by 60 min, n = 5
Description: The surgical procedures were similar to those described elsewhere. The Hank’s balanced salt solution (HBSS, pH = 7.4) with SZ–A (21.73 μg/mL) or DNJ (50 μM) at 37 °C was infused into the jejunum at 0.3 mL/min individually. Phenol Red (50 μM) was added to serve as a nonabsorbable marker for measuring water flux. The blood from mesenteric vein and perfusate were collected at five-minute intervals. The plasma was separated by centrifugation and perfusate were immediately frozen at −20 °C for LC-MS/MS analysis. Atenolol and propranolol, the low- and high-permeability markers, were used to check the integrity of the intestinal membrane.

[5] = DNJ 110 mg/kg ingested; cited from earlier work
[6] = 4.35 μg/mL SZ–A (10 μM DNJ, 1.9 μM FGM, 1.6 μM DAB)
[7] = 10.87 μg/mL SZ–A (25 μM DNJ, 4.7 μM FGM, 3.9 μM DAB)

Structure (SMILES) | Kp [1] | percentage of initial amount after incubation with rat gut microbiota cultures [2, 6] [%] | percentage of initial amount after incubation with rat gut microbiota cultures [2, 7] [%] | amount of alkaloid after incubation in rat intestinal homogenate [3] | cumulative amount per unit of area absorbed into the mesenteric venous blood ([4]; perfusion of SZ–A 21.73 μg/mL (containing 50 μM DNJ)) [pmol/cm^2] | cumulative amount per unit of area absorbed into the mesenteric venous blood ([4]; perfusion of purified DNJ 50 μM) [pmol/cm^2] | fraction of ingested DNJ incorporated into the rat plasma [5] [%]
OC[C@H]1NC[C@@H](O)[C@@H]1O [DAB, 1,4-dideoxy-1,4-imino-D-arabinitol] | 0.09 to 0.59 | 182.2 | 159.3 | not changed significantly | – | – | –
OC[C@H]1NC[C@H](O)[C@@H](O)[C@@H]1O [DNJ, 1-deoxynojirimycin] | 0.06 to 0.47 | 110.6 | 115.5 | not changed significantly | 2136.1 | 1787.1 | 1
OC[C@H]1NCC[C@@H](O)[C@@H]1O [FGM, fagomine] | 0.18 to 1.13 | 152.8 | 172.0 | not changed significantly | – | – | –
